Assay results taken from patent US5710126A, “T cell epitopes of ryegrass pollen allergen” (ImmuLogic Pharmaceutical Corporation, priority 1995, dated 1998).

Test system: T cell lines from grass-allergic patients primed in vitro with affinity purified Lol p V
Experiment: T cell proliferation (tritiated thymidine uptake) of Lol p V-primed T cell lines restimulated with peptides or proteins
Assay type: cell-based, human
Details: for mean T cell stimulation index (S.I.): mean of positive responses (S.I. at least 2), FIGS. 4 and 5
Description: As discussed in Example 2, human T cell stimulating activity can be tested by culturing T cells obtained from an individual sensitive to Lol p V allergen, (i.e., an individual who has an IgE mediated immune response to Lol p V allergen) with a peptide derived from the allergen and determining whether proliferation of T cells occurs in response to the peptide as measured, e.g., by cellular uptake of tritiated thymidine. Stimulation indices for responses by T cells to peptides can be calculated as the maximum CPM in response to a peptide divided by the control CPM. A stimulation index (S.I.) equal to or greater than two times the background level is considered "positive". Positive results are used to calculate the mean stimulation index for each peptide for the group of patients tested. In FIGS. 4 and 5 the mean T cell stimulation index is indicated above the bar. Preferred peptides of this invention comprise at least one T cell epitope and have a mean T cell stimulation index of greater than or equal to 2.0. A peptide having a mean T cell stimulation index of greater than or equal to 2.0 in a significant number of ryegrass pollen sensitive patients tested is considered useful as a therapeutic agent. Preferred peptides have a mean T cell stimulation index of at least 2.5, more preferably at least 3.0, more preferably at least 3.5, more preferably at least 4.0, more preferably at least 5.0 and most preferably at least about 6. For example, peptides of the invention having a mean T cell stimulation index of at least 5, as indicated by data shown in FIGS. 4 and 5, include peptides LPIX-4 (SEQ ID NO:6), LPIX-5 (SEQ ID NO:7), LPIX-8 (SEQ ID NO:10) LPIX-17 (SEQ ID NO:19) and LPIX-19 (SEQ ID NO:21).
In addition, preferred peptides have a positivity index (P.I.) of at least about 60, more preferably about 100, more preferably at least about 200 and most preferably at least about 300. The positivity index for a peptide is determined by multiplying the mean T cell stimulation index by the percent of individuals, in a population of individuals sensitive to ryegrass pollen (e.g., preferably a population of at least 15 individuals,more preferably a population of at least 30 individuals or more), who have a T cell stimulation index to such peptide of at least 2.0. Thus, the positivity index represents both the strength of a T cell response to a peptide (S.I.) and the frequency of a T cell response to a peptide in a population of individuals sensitive to ryegrass pollen. In FIG. 4, the bar represents the positivity index and the percent of individuals tested who have a T cell stimulation index of at least 2.0 to that peptide are indicated in parenthesis above each bar (the mean T cell stimulation index is also indicated above each bar). […] Lol p V peptides having a positivity index of at least about 100 and a mean T cell stimulation index of at least about 4 include: LPIX-4 (SEQ ID NO:6), LPIX-5 (SEQ ID NO:7), and LPIX-17 (SEQ ID NO:19).
In FIG. 5, the bar represents the cumulative rank of the peptide response in the group of patients tested as described in Example 2. To determine the cumulative rank, the 5 peptides with the highest S.I. in each individual were determined and assigned a numerical rank in descending order, with 5 representing the strongest response. The ranks for each peptide were then summed for the entire group of patients tested to determine the cumulative rank for the peptide. Above each bar is the mean S.I. for each peptide and the percent of positive responses (in parenthesis) with an S.I. of at least 2 to the peptide in the group of patients tested.
This amount of priming antigen was determined to be optimal for the activation of T cells from most grass-allergic patients. Viable cells were purified by LSM centrifugation and cultured in complete medium, supplemented with 5 units recombinant human IL-2/ml and 5 units recombinant human IL-4/ml for up to 3 weeks until the desired cell number were achieved. […]

Row | Substance | positivity index (P.I.; % of patients responding multiplied by mean S.I.) (19 patients, FIG. 4) | mean T cell stimulation index (S.I.) (19 patients) | other results
1 | LPIX-4: synthetic overlapping peptide derived from Lol p V, sequence shown in FIG. 2 (EQKLLEDVNAGFKAAVAAAA) | at least 100 | – | –
2 | LPIX-5: synthetic overlapping peptide derived from Lol p V, sequence shown in FIG. 2 (GFKAAVAAAANAPPADKFKI) | – | – | percent of positive responses (patients with S.I. of at least 2.0) (group of 19 patients tested, FIG. 4): 26.3%
3 | LPIX-8: synthetic overlapping peptide derived from Lol p V, sequence shown in FIG. 2 (GLLATSAAKAPGLIPKLDTA) | – | at least 5 | –
4 | LPIX-17: synthetic overlapping peptide derived from Lol p V, sequence shown in FIG. 2 (ATAANAAPTNDKFTVFESAF) | at least 100 | – | –
5 | LPIX-19: synthetic overlapping peptide derived from Lol p V, sequence shown in FIG. 2 (NKALNECTGGAYETYKFIPS) | – | at least 5 | –
6 | LPIX-20: synthetic overlapping peptide derived from Lol p V, sequence shown in FIG. 2 (AYETYKFIPSLEAAVKQAYA) | – | – | ranked sum (cumulative rank of the peptide response) (19 patients, 5 highest S.I. per individual ranked and summed, FIG. 5): highest ranked sum
